{"source": "ChEMBL document CHEMBL1138898", "about": "(Bioorg Med Chem Lett, 2006)", "note": "pKi: −log10 of the molar value."}
{"test_system": "Mus musculus", "test": "Protection of DBA/2 mouse against audiogenic-induced tonic seizure at 30 mg/kg, po after 1 hr", "assay_type": "functional", "units": {"Activity": "%"}}
{"smiles": "CC(C)C[C@H](CN)CC(=O)O", "note": "[PREGABALIN]", "Activity": 100}
{"smiles": "CC(C)CC(CN)c1nnn[nH]1", "note": "(stereo not given)", "Activity": 40}
{"smiles": "CCC(CC)CC(CN)c1nnn[nH]1", "note": "(stereo not given)", "Activity": 60}
{"biological_target": "not listed separately", "test": "Binding affinity to alpha-2delta calcium channel"}
{"smiles": "NCC(Cc1ccccc1)c1nnn[nH]1", "note": "(stereo not given)", "pKi": 5.12}
{"smiles": "NCC1(c2nnn[nH]2)CC12CCCCC2", "note": "(stereo not given)", "pKi": 7.48}
{"smiles": "NCC(CCCCCc1ccccc1)c1nnn[nH]1", "note": "(stereo not given)", "pKi": 6.30}
{"smiles": "NCC(CCCc1ccccc1)c1nnn[nH]1", "note": "(stereo not given)", "pKi": 5.68}
{"smiles": "CC(C)(CN)c1nnn[nH]1", "pKi": "< 5.00"}
{"smiles": "NCC(CCCCc1ccccc1)c1nnn[nH]1", "note": "(stereo not given)", "pKi": 6.89}
{"smiles": "CCCC(CCC)CC(CN)c1nnn[nH]1", "note": "(stereo not given)", "pKi": 6.55}
{"smiles": "CC(CN)(Cc1cccc(C(F)(F)F)c1)c1nnn[nH]1", "note": "(stereo not given)", "pKi": 6.80}
{"smiles": "CC(C)C1CC1(CN)c1nnn[nH]1", "note": "(stereo not given)", "pKi": 6.72}
{"smiles": "CC(CN)(Cc1ccccc1)c1nnn[nH]1", "note": "(stereo not given)", "pKi": 6.05}
{"smiles": "CC(C)CC(CN)c1nnn[nH]1", "note": "(stereo not given)", "pKi": 7.77}
{"smiles": "CCC(CC)CC(CN)c1nnn[nH]1", "note": "(stereo not given)", "pKi": 7.96}
{"smiles": "CC(C)CCC(CN)c1nnn[nH]1", "note": "(stereo not given)", "pKi": 6.68}
{"smiles": "NCC(CC1CCCCC1)c1nnn[nH]1", "note": "(stereo not given)", "pKi": 6.24}
{"smiles": "CCC(CC)C1CC1(CN)c1nnn[nH]1", "note": "(stereo not given)", "pKi": 5.40}
{"smiles": "CCCCCCC(CN)c1nnn[nH]1", "note": "(stereo not given)", "pKi": 6.48}
{"smiles": "NCC(c1nnn[nH]1)C1CCCC1", "note": "(stereo not given)", "pKi": 7.74}
{"smiles": "NCC(c1ccccc1)c1nnn[nH]1", "note": "(stereo not given)", "pKi": "< 5.00"}
{"smiles": "CC(C)C(CN)c1nnn[nH]1", "note": "(stereo not given)", "pKi": 6.89}
{"smiles": "CC(CN)(Cc1ccc(F)c(F)c1)c1nnn[nH]1", "note": "(stereo not given)", "pKi": 6.28}
{"smiles": "NCC(CCc1ccccc1)c1nnn[nH]1", "note": "(stereo not given)", "pKi": 5.51}
{"smiles": "NCC(c1nnn[nH]1)C1CCCCC1", "note": "(stereo not given)", "pKi": 6.82}
{"smiles": "NCCc1nnn[nH]1", "pKi": "< 5.00"}
{"smiles": "NCC(Cc1ccccc1)(Cc1ccccc1)c1nnn[nH]1", "pKi": "< 5.00"}
{"test_system": "Mus musculus", "test": "Protection of DBA/2 mouse against audiogenic-induced tonic seizure at 30 mg/kg, po after 2 hrs", "assay_type": "functional", "units": {"Activity": "%"}}
{"smiles": "CC(C)C[C@H](CN)CC(=O)O", "note": "[PREGABALIN]", "Activity": 100}
{"smiles": "CC(C)CC(CN)c1nnn[nH]1", "note": "(stereo not given)", "Activity": 80}
{"smiles": "CCC(CC)CC(CN)c1nnn[nH]1", "note": "(stereo not given)", "Activity": 100}
